Test [1] deals with THP-1 cells, IL-1β release. As to the kind of experiment: IL-1β Release THP-1 Assay (Example B-3). In kind it is cell-based. The conditions noted are these: Homo sapiens; PMA-differentiated THP-1 cells, LPS then Nigericin, IL-1β by Elisa; read-out: Potency, THP-1 IL-1β, IC50 (nM), Example B-3. The method, then: Example B-3: IL-1β Release THP-1 Assay
THP-1 cells Culture RPMI1640 medium, 10% FBS, 1% PS, 55 uM β-Mer at 37° C. & 5% CO2 incubator.
IL-1β Release Detection • 1) Seed THP-1 in complete RPMI 1640 medium containing PMA into 96 well plate coated with poly-L-lysin incubate for 24 hours. • 2) Remove medium, wash the differentiated THP-1 cells with PBS, add FBS free RPMI 1640 medium. • 3) Add LPS and incubate for 3 hours at 37° C. & 5% CO2 incubator. • 4) Add compounds and incubate for 30 minutes at 37° C. & 5% CO2 incubator. • 5) Add Nigericin and incubate for 1 hour at 37° C. & 5% CO2 incubator. • 6) Collect supernatant to test IL-1β by Elisa.
• a) Assay robustness check with DMSO and Low control data:
[formula] • X: cpd concentration • Y: change % • Top and Bottom: Plateaus in same units as Y • logIC50: same log units as X • HillSlope: Slope factor or Hill slope

The next test addresses T1, NLRP3 (Homo sapiens, UniProt Q96P20).
T1 construct: purchased ICE YM2306T-H06MHS
Nature of the test: NLRP3 Enzymatic Activity ADP-Glo Assay (Example B-4). Conditions: hydrolysis of ATP by NLRP3; NLRP3 15 nM, ATP 1 μM; read-out: NLRP3_ADP-Glo_IC50 (nM), Example B-4. Format: biochemical. Here is the method: Example B-4: NLRP3 Enzymatic Activity ADP-Glo Assay
NLRP3 activity test experiment, measuring the hydrolysis of NLRP3 on the substrate ATP using the ADP-Glo assay. First, after adding an inhibitor containing 0.5% DMSO with Echo, add 5 μL of NLRP3 (ICE, YM2306T-H06MHS) enzyme solution to each well, centrifuge at 1000 rpm for 1 min at room temperature and react for 10 min. Then add 5 μL of ATP (Promega, V915A) substrate solution to each well for 90 min at room temperature; NLRP3 and ATP were prepared in 50 mM HEPES, 10 mM MgCl2, 0.01% Brij-35, 1 mM EGTA, and 2 mM DTT buffers at final concentrations of 15 nM and 1 μM, respectively. Subsequently, 10 μL ADP-Glo reagent solution (Promega, V9102) was added into each assay well, centrifuged at 1000 rpm for 1 min, and then incubated at room temperature for 45 min. Finally, 20 μL ADP-Glo detection solution (Promega, V9102) is added to each well, centrifuged at 1000 rpm for 1 min and reacted for 45 min at room temperature. The luminescence signal values were read using a BMG instrument and the IC50 values were determined by fitting the data to an S-shaped dose-response curve using nonlinear regression.

Among the data in patent publication US20260184704A1, “NLRP3 INFLAMMASOME INHIBITORS AND USES THEREOF” (Insilico Medicine IP Limited, priority 2023, published 2026) are IC50 values, retold here.

T1 sequence (Q96P20 whole entry): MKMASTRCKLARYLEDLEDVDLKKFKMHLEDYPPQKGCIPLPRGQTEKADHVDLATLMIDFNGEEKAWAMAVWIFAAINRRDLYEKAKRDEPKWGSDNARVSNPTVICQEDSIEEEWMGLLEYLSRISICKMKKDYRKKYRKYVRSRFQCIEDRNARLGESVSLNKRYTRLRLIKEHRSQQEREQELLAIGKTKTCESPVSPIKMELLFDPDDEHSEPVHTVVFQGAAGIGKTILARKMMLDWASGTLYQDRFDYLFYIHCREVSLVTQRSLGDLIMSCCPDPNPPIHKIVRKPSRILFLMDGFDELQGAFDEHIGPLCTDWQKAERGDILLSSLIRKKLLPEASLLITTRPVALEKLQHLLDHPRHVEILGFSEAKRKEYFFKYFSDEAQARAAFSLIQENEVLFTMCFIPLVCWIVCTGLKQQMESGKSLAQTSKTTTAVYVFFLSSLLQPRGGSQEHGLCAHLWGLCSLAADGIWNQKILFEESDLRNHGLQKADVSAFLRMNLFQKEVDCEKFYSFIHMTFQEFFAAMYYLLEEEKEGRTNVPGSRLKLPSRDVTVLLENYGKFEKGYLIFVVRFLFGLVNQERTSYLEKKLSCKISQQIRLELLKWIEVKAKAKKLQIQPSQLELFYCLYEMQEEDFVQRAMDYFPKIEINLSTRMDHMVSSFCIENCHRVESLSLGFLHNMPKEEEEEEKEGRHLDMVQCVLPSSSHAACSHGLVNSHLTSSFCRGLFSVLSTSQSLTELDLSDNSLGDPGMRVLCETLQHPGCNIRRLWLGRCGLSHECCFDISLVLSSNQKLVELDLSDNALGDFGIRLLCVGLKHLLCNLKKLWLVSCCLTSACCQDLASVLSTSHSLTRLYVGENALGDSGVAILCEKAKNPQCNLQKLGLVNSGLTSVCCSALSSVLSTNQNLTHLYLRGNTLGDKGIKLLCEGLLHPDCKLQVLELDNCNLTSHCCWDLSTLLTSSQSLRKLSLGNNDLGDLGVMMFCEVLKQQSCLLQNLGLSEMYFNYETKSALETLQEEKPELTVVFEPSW

As to `Cc1cc(C(F)(F)F)cc(O)c1C1=NN=C(N[C@@H]2C[C@H](O)CN(C)C2)SC1` (single isomer, unassigned) [Compound 16], the IC50 in test [1] lay in the range of 10 to 100 nM.

On to `Cc1cc(C(F)(F)F)cc(O)c1C1=NN=C(N2CCC[C@@H]2[C@@H](C)O)SC1` (single isomer, unassigned) [Compound 33], for which, at NLRP3, the IC50 was greater than 1000 nM.

Take `Cc1cc(C(F)(F)F)cc(O)c1C1=NN=C(N2CCC[C@@H]2[C@H](C)O)SC1` (single isomer, unassigned) [Compound 34]: at NLRP3, the IC50 is greater than 1000 nM. Take `Cc1cc(C(F)(F)F)cc(O)c1C1=NN=C(N[C@@H]2CCCN(C)C2)SC1` [Compound 1]: the IC50 was less than 10 nM in test [1] and 10 to 100 nM at NLRP3. Regarding `Cc1cc(C(F)(F)F)cc(O)c1C1=NN=C(N[C@@H]2CCCNC2)SC1` [Compound 2], the IC50 in test [1] is less than 10 nM. Regarding `CCN1CCC[C@@H](NC2=NN=C(c3c(C)cc(C(F)(F)F)cc3O)CS2)C1` [Compound 3], the IC50 in test [1] was less than 10 nM.

For the compound `CC1SC(N[C@@H]2CCCN(C)C2)=NN=C1c1ccc(C(F)(F)F)cc1O` (stereo partly shown) [Compound 5], in test [1], the IC50 is 100 to 1000 nM.

As for `Cc1cc(C(F)(F)F)cc(O)c1C1=NN=C(N[C@@H]2CCCN(CCO)C2)SC1` [Compound 6], the IC50 in test [1] is less than 10 nM.

As to `Cc1cc(C(F)(F)F)cc(O)c1C1=NN=C(N[C@@H]2CCC[C@H](O)C2)SC1` [Compound 7], the IC50 in test [1] is 10 to 100 nM. Still for that read-out and setting: as for `Cc1cc(C(F)(F)F)cc(O)c1C1=NN=C(N[C@@H]2C[C@H](F)CN(C)C2)SC1` [Compound 9], the figure is 10 to 100 nM; as for `Cc1cc(C(F)(F)F)cc(O)c1C1=NN=C(N[C@@H]2CCN(C)C2)SC1` [Compound 11], 10 to 100 nM. Consider `Cc1cc(C(F)(F)F)cc(O)c1C1=NN=C(N[C@@H]2CCCN(C3COC3)C2)SC1` [Compound 17], for which the IC50 in test [1] was in the range of 10 to 100 nM. On the same count and under the same terms, the figure for `Cc1cc(C(F)(F)F)cc(O)c1C1=NN=C(N[C@H]2CN3CCC2CC3)SC1` [Compound 20] is 10 to 100 nM; for `Cc1cc(OC(F)F)cc(O)c1C1=NN=C(N[C@@H]2CCCN(C)C2)SC1` [Compound 21] it is 10 to 100 nM; for `Cc1cc(C(F)(F)F)cc(O)c1C1=NN=C(Nc2cc[nH]n2)SC1` [Compound 22] it is 100 to 1000 nM. On to `COc1cc(C)c(C2=NN=C(N[C@@H]3CCCN(C)C3)SC2)c(O)c1` [Compound 23], for which the IC50 in test [1] is less than 10 nM; on NLRP3, 10 to 100 nM.

As to `Cc1cc(C(F)(F)F)cc(O)c1C1=NN=C(N[C@H]2C[C@@H](O)C2)SC1` [Compound 24], in test [1], the IC50 lay in the range of 100 to 1000 nM.

Consider `Cc1cc(OC(F)F)cc(O)c1C1=NN=C(N[C@H]2C[C@@](C)(O)C2)SC1` [Compound 25], for which the IC50 (in test [1]; on NLRP3) was 10 to 100 nM each time. With `Cc1cc(C(F)(F)F)cc(O)c1C1=NN=C(NC[C@@H](C)O)SC1` [Compound 26], the IC50 in test [1] fell in the range of 100 to 1000 nM. Take `Cc1cc(C(F)(F)F)cc(O)c1C1=NN=C(N[C@H]2C[C@](O)(C(F)(F)F)C2)SC1` [Compound 29]: the IC50 in test [1] lay within 10 to 100 nM. In the case of `Cc1cc(Cl)cc(O)c1C1=NN=C(N[C@H]2C[C@@](C)(O)C2)SC1` [Compound 30], the IC50 (in test [1]; at NLRP3) was 10 to 100 nM each time. Turning to `CNC(=O)CNC1=NN=C(c2c(C)cc(C(F)(F)F)cc2O)CS1` [Compound 32], on NLRP3, the IC50 was greater than 1000 nM. Take `Cc1cc(C(F)(F)F)cc(O)c1C1=NN=C(N2CCC3CCN(C)CC32)SC1` (stereo not shown) [Compound 35]: the IC50 (in test [1]; at NLRP3) was 10 to 100 nM throughout. `Cc1cc(C(F)(F)F)cc(O)c1C1=NN=C(N[C@@H]2CCCN(C)C2)N(C)C1` [Compound 36]: the IC50 (in test [1]; on NLRP3) was 100 to 1000 nM each time. Regarding `Cc1cc(C#N)cc(O)c1C1=NN=C(N[C@@H]2CCCN(C)C2)SC1` [Compound 37], the IC50 (in test [1]; at NLRP3) was 10 to 100 nM throughout. Consider `Cc1cc(C#N)cc(O)c1C1=NN=C(N2CCC3CCN(C)CC32)SC1` (stereo not shown) [Compound 39], for which the IC50 at NLRP3 fell in the range of 100 to 1000 nM.

Consider `Cc1cc2c(c(O)c1C1=NN=C(N[C@@H]3CCCN(CCO)C3)SC1)CCO2` [Compound 40], for which the IC50 (in test [1]; at NLRP3) was 10 to 100 nM in each case. `C[C@]1(O)C[C@@H](NC2=NN=C(c3c(O)cc(C(F)(F)F)cc3F)CS2)C1` [Compound 41]: at NLRP3, the IC50 fell in the range of 100 to 1000 nM. On the same count and under the same terms, as for `Cc1cc(C(F)(F)F)cc(OC(F)F)c1C1=NN=C(N[C@H]2C[C@@](C)(O)C2)SC1` [Compound 42], the figure is greater than 1000 nM; as for `Cc1cc(C(F)(F)F)cc(O)c1C1=NN=C(NCCC(N)=O)SC1` [Compound 43], greater than 1000 nM.

As to `C[C@]1(O)C[C@@H](NC2=NN=C(c3c(O)cc(C(F)(F)F)cc3Cl)CS2)C1` [Compound 45], the IC50 (in test [1]; on NLRP3) was 10 to 100 nM each time.

`CCN1CCC[C@@H](NC2=NN=C(c3c(C)cc4sccc4c3O)CS2)C1` [Compound 46]: the IC50 (in test [1]; at NLRP3) was less than 10 nM throughout. In the case of `Cc1cc2sccc2c(O)c1C1=NN=C(N[C@@H]2CCCN(CCO)C2)SC1` [Compound 47], the IC50 (in test [1]; on NLRP3) was less than 10 nM in each case. Turning to `Cc1cc(C(F)(F)F)c(F)c(O)c1C1=NN=C(N[C@H]2C[C@@](C)(O)C2)SC1` [Compound 48], the IC50 lay in the range of 100 to 1000 nM in test [1] and 10 to 100 nM on NLRP3.

On to `Cc1cc2c(cc1C1=NN=C(N[C@@H]3CCCN(C)C3)SC1)CCO2` [Compound 49], for which the IC50 on NLRP3 was greater than 1000 nM. As to `Cc1cc2c(c(O)c1C1=NN=C(N[C@H]3C[C@@](C)(O)C3)SC1)CCC2` [Compound 50], the IC50 (in test [1]; on NLRP3) was 10 to 100 nM in each case. As for `Cc1cc2c(c(O)c1C1=NN=C(N3CCC4CCN(C)CC43)SC1)CCO2` (stereo not shown) [Compound 51], the IC50 in test [1] is less than 10 nM; on NLRP3, 10 to 100 nM.

As to `Cc1cc(C(F)(F)F)cc(O)c1C1=NN=C(N[C@@H]2CCCN(C)C2)OC1` [Compound 52], on NLRP3, the IC50 is greater than 1000 nM. On the same count and under the same terms, as for `CCN1CCC[C@@H](NC2=NN=C(c3c(C)cc4c(c3O)CCO4)CS2)C1` [Compound 54], the figure is less than 10 nM; as for `Cc1cc2c(c(O)c1C1=NN=C(N(C)[C@@H]3CCCN(C)C3)SC1)CCO2` [Compound 55], 100 to 1000 nM; as for `CC#Cc1cc(C)c(C2=NN=C(N[C@@H]3CCCN(C)C3)SC2)c(O)c1` [Compound 56], 100 to 1000 nM. For `Cc1c(F)c2c(c(O)c1C1=NN=C(N[C@@H]3CCCN(C)C3)SC1)CCO2` [Compound 57], the IC50 (in test [1]; on NLRP3) was 10 to 100 nM throughout. In the case of `C[C@]1(O)C[C@@H](NC2=NN=C(c3c(C(F)(F)F)cc4c(c3O)CCO4)CS2)C1` [Compound 58], the IC50 (in test [1]; at NLRP3) was 10 to 100 nM throughout. In the case of `C[C@]1(O)C[C@@H](NC2=NN=C(c3c(Cl)cc4c(c3O)CCO4)CS2)C1` [Compound 60], the IC50 (in test [1]; at NLRP3) was 10 to 100 nM in each case. In the case of `Cc1c(F)c2c(c(O)c1C1=NN=C(N[C@H]3C[C@@](C)(O)C3)SC1)CCO2` [Compound 61], the IC50 at NLRP3 was in the range of 10 to 100 nM. The same measure, in the same setting: as for `Cc1cc2c(c(O)c1C1=NN=C(N[C@H]3C[C@@](C)(O)C3)SC1)COC2` [Compound 62], the figure is 100 to 1000 nM. On to `Cc1cc2c(c(O)c1C1=NN=C(NC34CCC(O)(CC3)C4)SC1)CCO2` [Compound 63], for which the IC50 on NLRP3 lay within 100 to 1000 nM.

For `Cc1cc2c(c(O)c1C1=NN=C(N[C@H]3C[C@@](C)(O)C3)SC1)OCC2` [Compound 64], the IC50 on NLRP3 lay in the range of 10 to 100 nM. Still for that read-out and setting: the figure for `Cc1cc2c(c(O)c1C1=NN=C(N[C@H]3C[C@](C)(O)C3)SC1)CCO2` [Compound 65] is 100 to 1000 nM. With `C[C@]1(O)C[C@@H](NC2=NN=C(c3c(C(F)F)cc4c(c3O)CCO4)CS2)C1` [Compound 66], the IC50 (in test [1]; on NLRP3) was 10 to 100 nM in each case. As for `Cc1cc2c(c(O)c1C1=NN=C(N[C@H]3C[C@](C)(N)C3)SC1)CC2` [Compound 69], the IC50 at NLRP3 fell in the range of 100 to 1000 nM. As for `Cc1cc2c(c(O)c1C1=NN=C(N[C@]34CC[C@](O)(C3)C4)SC1)CCO2` [Compound 70], the IC50 on NLRP3 lay in the range of 100 to 1000 nM. On the same count and under the same terms, the figure for `[2H]C([2H])([2H])c1cc2c(c(O)c1C1=NN=C(N[C@H]3C[C@@](C)(O)C3)SC1)CCO2` [Compound 71] is 10 to 100 nM; for `Cc1cc2occc2c(O)c1C1=NN=C(N[C@H]2C[C@@](C)(O)C2)SC1` [Compound 72] it is less than 10 nM; for `Cc1cc(Cl)cc(O)c1C1=NN=C(N[C@H]2C[C@](C)(N)C2)CS1` [Compound 207] it is 100 to 1000 nM.
